From patent publication US20110113495A1, “SCREENING METHOD FOR AGENTS SUITABLE FOR PROPHYLAXIS AND THERAPY OF ALZHEIMER'S DISEASE (AD)” (priority 2008, published 2011)
Entries after “also recorded” stand apart in the source; their conditions may differ.

Legend:
[1] = tested on: SH-SY5Y cells (human neuroblastoma cells); test: Toxicity test (MTT) with human neuroblastoma cells; format: cell-based; conditions: 10 μM peptide or SEC fractions, 12 h
Method: SH—SY5Y cells were routinely cultured in DMEM/Ham'sF12 medium (PAA) supplemented with 10% (v/v) bovine calf serum, 2 mM glutamine, 0.1 mM non-essential amino acids and 0.5 mM sodium pyruvate in a 5% CO2 humidified atmosphere at 37° C.
Cells were plated at a density of 1.000 cells per well in 100 μl of fresh medium on 96-well plates. After 48 h medium was replaced by DMEM/Ham's F12 with 100 Uml^−1 penicillin and 10 μg streptomycin including 10 μM peptide, freshly dissolved in H2O containing 0.125% NH3 or fractions received by size exclusion chromatography. Probe and control were incubated for 12 h. Cell mediated reduction of 3-(4,5-dimethylthiazol-2-yl)-2,5-diphenyltetrazolium bromide (MTT) was used to monitor Aβ toxicity by addition of 10 μl of a 5 mgml^−1 MTT stock solution and incubation for further 1-2 h. Before measuring the absorbance of blue formazan at 562 nm using an automatic micro plate reader, cells were lysed with 50 μl DMSO for 10 minutes at room temperature.
The toxic effects of various oligomers on human neuroblastoma cells was determined by use of the MTT test allowing to quantify the toxicity.

[2] = tested on: acute hippocampal rat brain sections or slices (area CA1 fEPSPs); test: Long term potentiation (LTP) of acute hippocampal rat brain slices; conditions: slices incubated with 500 nM peptide 20 min prior to tetanisation
Method: Hippocampal slices were prepared from 3-6 week old Wistar rats. Rats were decapitated under ether anesthesia. The brain was removed quickly and sectioned into 300 μm thick slices using a vibroslicer (Leica). The slices were maintained at room temperature in a holding chamber containing oxygenated artificial cerebrospinal fluid (ACSF; 129 mM NaCl, 1 mM NaH2PO4, 10 mM Glucose, 1.8 mM MgSO4, 1.6 mM CaCl2, 3 mM KCl, NaHCO3 21 mM). (Ringer: 119 mM NaCl, 1 mM NaH2PO4, 10 mM Glucose, 1.3 mM MgSO4, 2.5 mM CaCl2, 2.5 mM KCl, NaHCO3 26 mM) Ph 7.2-7.4 Osmolarität 0.28-0.31 Osmol/kg.
After at least 1 h equilibration, slices were transferred into submerged recording chamber and continuously perfuse with room temperature oxygenated ACSF at 3 ml/min throughout the experiments. […] Peptide was not washed during the experiment.
Field excitatory postsynaptic potentials (fEPSPs) were recorded of stratum radiatum area CA1 evoked by Schaffer collateral stimulation with ACSF filled electrodes. Two independent pathways were measured whereas two stimulating electrodes lay parallel to each other.
Baseline responses were collected using test pulses that yield 30-40% of the maximal fEPSP slope. LTP was induced by Theta brust stimulation (TBS) of one of the two pathways. The inter-theta burst stimulation interval was 20 sec and four TBSs were applied to induce LTP. TBS consisted of 10 bursts delivered at 5 Hz. Each burst consisted of four pulses delivered at 100 Hz with a pulse-duration of 0.2 msec. (Evers M., Salmen B., Schachner M., 2002 J. Neuroscience)
The amount of LTP was described as percent changes of (EPSP slopes after TBS normalized to baseline values with an additional subtraction of the second, unstimulated pathway. Slopes were analysed using IGOR program.
In order to assay whether Aβ oligomers show an effect on learning and commemoration LTP (long term potentiation) of acute hippocampal sections of rat brains was determined. Several recent publications report on the inhibition of LTP by Aβ1-42. This effect can be equated with cognitive deficiencies observed for AD patients. In order to further improve these performance tests and to minimize possible side effects of the peptides on the general network plasticity of the sections, two independent neuronal pathways were assayed. Whereas the first pathway was stimulated for inducing LTP, the second one was assayed unstimulated as a control. It could be confirmed that Aβ peptides inhibit LTP.

[3] = Size exclusion chromatography of freshly dissolved Aβ1-42 peptides (oligomer size distribution); format: physicochemical; conditions: freshly dissolved peptide 1 mg/ml, Superose 12 column, 1×PBS
Method: In order to discriminate the various oligomeric forms of Aβ wildtype and mutant peptides, a size exclusion chromatography was performed. Therefore, a Superose 12 column (Amersham Bioscience) was equilibrated with 1×PBS (137 mM NaCl, 2.7 mM KCl, 10 mM Na2HPO4, 2 mM KH2PO4) under conditions recommended by the manufacturer. Thereafter 1 mg peptide was monomerized with 50 μl concentrated formic acid and evaporated. Peptides were solubilized in H2O containing 0.125% NH3 to a final concentration of 1 mg/ml.
A volume of 500 μl was centrifuged at maximal speed for 10 minutes and loaded on the column with a flow rate of 0.5 ml/min. For determination of the peptide concentration, fractions were tested with Bradford-, BCA-assay and dot blot analysis. The collected fractions were immediately applied for further analysis.
In this study it was investigated to what extent the GxxxG motif effects the aggregation of Aβ1-42 peptides. Aβ1-42 peptides and the oligomers were separated by use of SEC.

[4] = tested on: primary hippocampal rat neurons; test: Toxicity test (MultiTox-Fluor) with primary hippocampal rat neurons; format: cell-based; conditions: normalized peptide concentration, 48 h
Method: Hippocampi from P0-P1 Wistar rat pups were used for primary neuronal dissociated cultures. Tissue was dissected in HBSS containing Ca^2+ and Mg^2+ and incubated with an enzyme solution containing 1 mM CaCl2, 0.5 mM EDTA Ph 8.0, 2 mg/ml Cystein and 200-250 units papain (Worthington) in BME for 60 min at 37° C. Supernatant was removed and cells were incubated in inactivation solution (2.5 mg/ml BSA, 2.5 mg/ml Trypsin inhibitor (both Sigma) and 10% FCS in BME) for 5 min at. RT. Tissue clumps were dissociated by repeated passage through 1 ml pipettes. Cells were centrifuged for 10 min at 12000 rpm, 4° C. and resuspended in Neurobasal A medium supplemented with 2% B27, 2 mM Glutamax and 0.2% Penicillin/Streptomycin (all Gibco). Neurons were cultured on glia cell feeder layers in 96 well plates with 5×10^3 cells in 100 μl medium. For feeder layer cultures rat P0-P1 cortices were prepared as described above and cultured at a density of 1×10^6 cells in a T75 flask for at least one week in BME medium supplemented with 10% FCS, 5 mM glucose, 1 mM Glutamax, 10 mM Hepes, 2.5 μg/ml insulin, 0.2% Penicillin/Streptomycin. Cells were trypsinized and 2×10^3 cells per well were seeded in 96 wells plates four days before neurons were added.
After ten days of incubation neuronal cultures were treated with Aβ1-42 freshly dissolved in H2O or with SEC fractions for another 48 h. Neuronal viability was detected by using MultiTox-Fluor Multiplex Cytotxicity assay (Promega) as recommended by the producer.
Cells treated with buffer only were set as non-toxic.

Substance	toxic effect (MTT) [1]	LTP induction after theta burst stimulation [2]	LTP induction after theta burst stimulation ([2]; listed as tetramers of the Aβ1-42G33A peptide)	oligomer size distribution / aggregation by SEC [3]	toxic effect (Multi-tox) [4]	oligomer size distribution / aggregation by SEC ([3]; listed as Aβ1-42)	oligomer size distribution / aggregation by SEC ([3]; listed as G33A)
Aβ1-42G33A tetramers: tetramers of the Aβ1-42G33A peptide	no toxic effects were observed	correspond to the results obtained for Aβ1-42G331	LTP could be induced				
Aβ1-42G29/33A: Aβ1-42 double mutant G29/33A	only weak toxicity			Most of the oligomers have a low MW, but large amounts of oligomers having a higher MW are already visible	weak toxicity		
Aβ1-42 wt: wild type amyloid beta 1-42 peptide containing the G29xxxG33 motif [reference compound]	strong toxic effect	no LTP is induced		immediately aggregates to 4- and 6-mers	strong toxic effect	4- to 6mers	
Aβ1-42G29A: Aβ1-42 peptide with mutation at position 29 (G to A)	strong toxic effect				strong toxic effect		
Aβ1-42 tetramers: tetramers (SEC fraction) of wild type Aβ1-42 peptide [reference compound]	highest toxicity	cause a measurable loss of cognitive performance			highest toxicity		
Aβ1-42G33A: Aβ1-42 peptide with glycine at position 33 replaced by alanine				shift to oligomers with a higher MW			minor amounts of tetramers are still detectable
Aβ1-42G331: Aβ1-42 peptide with glycine at position 33 replaced by isoleucine		induced LTP shows the same value as the control; also recorded: LTP could be induced					
